These results are taken from the METLIN SMRT retention time set (Domingo-Almenara et al. 2019).

This data set can be described thus: gradient 5% acetonitrile 3 min, to 50% in 2 min, to 85% in 15 min, held 3 min, 100 µL/min. The settings on record: column: Zorbax Extend-C18 2.1 x 50 mm; eluents: water / acetonitrile, 0.1% formic acid. The method in brief: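 Retention time was recorded from adduct peaks, which were picked computationally and each inspected manually. Pure standards ran in mixtures of ~100 molecules on HPLC coupled to a quadrupole time-of-flight mass spectrometer, in positive and negative ionization mode, through a Zorbax Extend-C18 column (2.1 × 50 mm, 1.8 μm) at 100 μL/min. Eluents were water and acetonitrile, each with 0.1% formic acid.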
In turn, `CCN1C(=O)C(C)(C(=O)Nc2ccc(F)c(Cl)c2)Oc2cccnc21` (stereo unspecified) yielded an RP-LC retention time of 988 s.

For `Cc1ccsc1C(=O)N1[C@H]2CC[C@@H]1c1cnc(-c3ccccc3)nc1C2`, the RP-LC retention time came to 982 s.

Take `Cc1onc(-c2ccccc2Cl)c1C(=O)NC1CC(=O)N(C2CC2)C1` (stereo unspecified): the RP-LC retention time was 636 s.

As to `Cc1ccc(CN2C(=O)C3CCCN3C(=O)c3ccccc32)cc1` (stereo unspecified), the RP-LC retention time was found to be 797 s.

With `CCOC(=O)c1cc(S(=O)(=O)N2CCCC2C(=O)NC2CCC(C)CC2)cn1C` (stereo unspecified), the RP-LC retention time came out at 966 s.

`Cc1cc(C)n(CCN2CCN(C(=O)Cc3cccs3)CC2)n1` came in with an RP-LC retention time of 548 s.

`O=C(Nc1cc(F)ccc1F)NC1CCN(c2cc(N3CCCC3)cnn2)C1` (stereo unspecified) registered an RP-LC retention time of 681 s.

As to `Cc1ccc(NC(=O)CCC2CCN(c3cc(NC4CC4)ncn3)CC2)cc1`, the RP-LC retention time worked out at 692 s.

In the case of `CCc1nc(OCC(=O)Nc2ccccc2CC)c2ccccc2n1`, the RP-LC retention time was 830 s.

On to `CCOc1ccc2ncc(S(=O)(=O)c3ccc(Cl)cc3)c(N3CCN(C)CC3)c2c1`, for which the RP-LC retention time worked out at 680 s.

For `CCc1ccc(NC(=O)c2cn(-c3cc(-c4nc(CC)no4)ccn3)cn2)cc1`, the RP-LC retention time turned out to be 939 s.

Molecule `COc1ccc(-c2noc(-c3nn(-c4ccc(C)cc4)ccc3=O)n2)cc1OC` had an RP-LC retention time of 827 s.

As for `COc1ccc2[nH]c3c(c2c1)CCNC31CCN(S(=O)(=O)c2c(C)noc2C)CC1`, the RP-LC retention time is 675 s.

`Cc1cc(-c2nnc(NC(=O)c3ccc4c(c3)OCCO4)o2)n(C)n1` gave an RP-LC retention time of 655 s.

Regarding `CCOc1ccccc1N1CCN(C(=O)CSc2nccnc2Oc2ccccc2C)CC1`, the RP-LC retention time was 1120 s.

As to `Cc1cccc(CNS(=O)(=O)c2cc3n(c2)CCCNC3=O)c1`, the RP-LC retention time turned out to be 677 s.

For the molecule `CCCc1nc(-c2ccnc(N3CCOCC3)c2)no1`, the RP-LC retention time turned out to be 749 s.

Take `Clc1ccc(C(Cn2ccnc2)OCc2c(Cl)cccc2Cl)c(Cl)c1` (stereo unspecified): the RP-LC retention time is 929 s.

With `CCn1c(=O)c(C(=O)N2CCCC2)nc2ccccc21`, the RP-LC retention time was 665 s.

The molecule `CCOC(=O)Cn1c2ccccc2n2nc(C)c(=O)nc12` returned an RP-LC retention time of 699 s.

Molecule `Cc1ccc(C)c(N2CCN(c3ccnc(SCC(=O)Nc4ccccc4F)n3)CC2)c1` yielded an RP-LC retention time of 1010 s.

Regarding `CC1CCN(S(=O)(=O)c2cc(C(=O)N3CCN(c4ccccc4F)CC3)n(C)c2)CC1`, the RP-LC retention time turned out to be 1050 s.

For the molecule `CCN1C(=O)c2cccnc2Sc2cc(NC(=O)Cc3cccc(F)c3)ccc21`, the RP-LC retention time was determined as 826 s.

For `CNC(=O)CCNc1c(-c2ccc(OC)cc2)nc2cnccn12`, the RP-LC retention time worked out at 588 s.

The molecule `CCn1cc(C(=O)NCc2ccc(C)cc2)c2cccnc21` registered an RP-LC retention time of 811 s.

`O=c1ccc(S(=O)(=O)N2CCCCC2)cn1Cc1ccccc1` had an RP-LC retention time of 851 s.

For the molecule `COc1cc(CN2CCC3(CC2)CC(O)CCO3)ccc1F` (stereo unspecified), the RP-LC retention time stood at 541 s.

`O=C(CSc1nc2ccccc2s1)N1CCN(C(=O)C2CC2c2ccccc2)CC1` (stereo unspecified) returned an RP-LC retention time of 867 s.

With `Cn1nc2n(c1=O)CCN(Cc1cn[nH]c1-c1ccc(F)cc1)C2`, the RP-LC retention time amounted to 600 s.

`CCN(CC)S(=O)(=O)c1ccc2c(c1)N(CC(=O)NCCC(C)C)C(=O)C1CCCCN21` (stereo unspecified) came in with an RP-LC retention time of 991 s.

In the case of `O=C(c1cncc(Br)c1)N1CCN(C(=O)c2cc(-c3ccncc3)n[nH]2)CC1`, the RP-LC retention time was 578 s.

`O=C(CSc1ccc(N2CCCC(C(=O)NC3CC3)C2)nn1)Nc1cc(F)ccc1Cl` (stereo unspecified) returned an RP-LC retention time of 660 s.

In turn, `Cc1ccn2cc(-c3ccc(NC(=O)C(C)Oc4ccccc4)cc3)nc2n1` (stereo unspecified) registered an RP-LC retention time of 672 s.

`CO[C@@H](C(=O)N1Cc2[nH]nc(NC(=O)c3ccc(N4CCN(C)CC4)cc3)c2C1)c1ccccc1` yielded an RP-LC retention time of 614 s.

`Cc1cccc(-c2nc(N)n(C(=O)C(C)(C)C)n2)c1` came in with an RP-LC retention time of 1090 s.

For `CCNC(=O)CCc1nc2ccccc2n(CC(=O)NCc2cccc(OC)c2OC)c1=O`, the RP-LC retention time came out at 1110 s.

`Cc1ccc(NC(=O)C2CCN(S(C)(=O)=O)c3ccccc3O2)cc1` (stereo unspecified) gave an RP-LC retention time of 892 s.

As for `O=C(Cn1c(-c2ccc(F)cc2)nc2ccccc21)N1CCCCC1`, the RP-LC retention time was 675 s.

Take `CCOc1ccccc1NC(=O)C1CCN(S(=O)(=O)c2ccc3[nH]c(=O)sc3c2)CC1`: the RP-LC retention time was found to be 870 s.

In turn, `CCCN(CC1CC1)C(=O)[C@@H]1COCC(=O)N1Cc1ccccc1` gave an RP-LC retention time of 818 s.

As to `Cc1c(C(=O)O)sc2nc(SCC(=O)Nc3ccccc3C(F)(F)F)[nH]c(=O)c12`, the RP-LC retention time amounted to 669 s.

For `CCOC(=O)C(=O)NCc1ccccc1Cl`, the RP-LC retention time turned out to be 735 s.

Molecule `Cc1ccc(NC(=O)CN2C(=O)COc3ccc(C(=O)N(C)C)cc32)nc1` had an RP-LC retention time of 612 s.

For the molecule `CCOCCCNC(=O)N1[C@H]2CC[C@@H]1c1cnc(-c3ccc(F)cc3)nc1C2`, the RP-LC retention time was 800 s.

Molecule `O=C(NCCN1CCCCCC1)C(=O)Nc1ccc2nc3n(c(=O)c2c1)CCCCC3` returned an RP-LC retention time of 596 s.

`COc1ccc(N2CCN(c3nccc4ccc(C(=O)NC5CCCCC5)cc34)CC2)cc1`: the RP-LC retention time was 771 s.

In turn, `O=C(NCCN1CCOCC1)c1cccc(Nc2c(-c3ccccc3)nc3cnccn23)c1` gave an RP-LC retention time of 589 s.

The molecule `Cc1noc(-c2cccc(OC3CN(S(=O)(=O)c4c(C)nn(C)c4C)C3)c2)n1` registered an RP-LC retention time of 850 s.

For the molecule `CCc1nc2cc(-c3noc(-c4nccc5ccccc45)n3)ccc2o1`, the RP-LC retention time came to 1130 s.

Molecule `COCCc1noc(COC2CCCN(C(=O)c3ccoc3)C2)n1` (stereo unspecified) displayed an RP-LC retention time of 668 s.

As to `O=C(NCCc1csc(-c2cccc(F)c2)n1)c1cccs1`, the RP-LC retention time was 905 s.

`CC(C)OCCCNC(=O)CN1c2ccc(F)cc2-c2ccccc2S1(=O)=O`: the RP-LC retention time is 890 s.

In turn, `COc1cccc(CN2CCC3(CCC3O)CC2)c1OC` (stereo unspecified) returned an RP-LC retention time of 572 s.

`CCc1ccc(C(C)NC(=O)c2ccc3[nH]cc(C(=O)C(=O)N4CCCCCC4)c3c2)cc1` (stereo unspecified): the RP-LC retention time came to 936 s.

Turning to `Cn1nnnc1C1CCCN(C(=O)Nc2ccc3c(c2)OCCO3)C1` (stereo unspecified), the RP-LC retention time is 661 s.

For the molecule `CCNc1cc(N2CCCC(CCC(=O)NCCC(C)C)C2)ncn1` (stereo unspecified), the RP-LC retention time amounted to 662 s.

The molecule `Cc1ccc(CNC(=O)c2nnc(-c3ccc(S(=O)(=O)N4CCOCC4)cc3)o2)cc1` registered an RP-LC retention time of 863 s.

The molecule `CO[C@H]1C(=O)N(C(C)C)[C@H]1C1CCN(C(=O)c2cnccn2)CC1` returned an RP-LC retention time of 621 s.

In turn, `COc1ccc(NC(=O)C2CCCN(c3nnc4ccc(Cl)cn34)C2)cc1` (stereo unspecified) showed an RP-LC retention time of 666 s.

`CC(=O)N1CCCSc2ccc(S(=O)(=O)N3CCC(CN4CCc5ccccc5C4)CC3)cc21` came in with an RP-LC retention time of 671 s.

In turn, `c1ccc(-c2nc3nc4c(c(N5CCN(C6CCCCC6)CC5)n3n2)CCCC4)cc1` yielded an RP-LC retention time of 668 s.

Molecule `O=C(Nc1nccnc1C(=O)NCc1cccnc1)c1ccccc1` came in with an RP-LC retention time of 584 s.

`CCOc1nccnc1N1CCC(N(C)C(=O)Cc2cccnc2)C1` (stereo unspecified) gave an RP-LC retention time of 630 s.

As for `CCOC(=O)C1CCN(c2nnc(-c3nnc(CC)o3)c3ccccc23)CC1`, the RP-LC retention time worked out at 977 s.

`Cc1nn2c(CNS(=O)(=O)Cc3cccc(F)c3)c(-c3ccccc3)nc2s1` had an RP-LC retention time of 935 s.

For `CCC(C)(C)NS(=O)(=O)c1cc(-c2nc(C)c(C(=O)N3CCCC3)s2)cs1`, the RP-LC retention time is 863 s.

As to `O=C(Nc1ccc(Cl)cc1)N1CCc2[nH]cnc2C1c1ccncc1` (stereo unspecified), the RP-LC retention time amounted to 565 s.

Consider `Nc1cc(-c2cccs2)nn1CCO`, for which the RP-LC retention time is 562 s.

`O=C(Nc1ccccc1)N1CCc2nn(Cc3ccccc3)c(=O)n2CC1` showed an RP-LC retention time of 736 s.

Molecule `CCOc1ccc(C2Cn3nnc(-c4nc(-c5cccnc5)no4)c3CO2)cc1` (stereo unspecified) had an RP-LC retention time of 982 s.

For `Cc1cc(=O)n(CC(=O)Nc2cc(F)ccc2C)c(N)n1`, the RP-LC retention time stood at 608 s.

`O=C(Cc1nnc2c(-c3nc(C4CC4)no3)cccn12)N1CCCCC1` gave an RP-LC retention time of 616 s.

`CCCn1cc(CCNS(=O)(=O)c2ccc(C3CCCCC3)cc2)c2cccnc21`: the RP-LC retention time was 1210 s.

For the molecule `CCCNC(=O)C1CCN(c2nc3ccc(-c4cccnc4)nc3s2)CC1`, the RP-LC retention time was found to be 604 s.

In turn, `CCN1C(=O)COc2ccc(-c3csc(NC(=O)c4cccc(Br)c4)n3)cc21` came in with an RP-LC retention time of 1100 s.

Consider `Cn1c(=O)c(N2CCC(NC(=O)NCc3ccccc3)CC2)nc2ccccc21`, for which the RP-LC retention time stood at 799 s.

With `CCOc1ccc(-n2c(N3CCN(C)CC3)nc3cc(C(=O)OC)ccc3c2=O)cc1`, the RP-LC retention time is 645 s.

`O=C(c1cn(-c2cc(N3CCSCC3)ncn2)cn1)N1CCN(c2ccccc2)CC1` returned an RP-LC retention time of 877 s.

With `Cc1nc(SCC(=O)O)n[nH]1`, the RP-LC retention time stood at 765 s.

Take `CC1(C(=O)N2CC=C(c3ccccc3)CC2)CCCCC(=O)N1` (stereo unspecified): the RP-LC retention time came out at 736 s.

Molecule `CCCN1C(=O)CCc2cc(NS(=O)(=O)c3ccc(CC)cc3)ccc21` showed an RP-LC retention time of 907 s.
